The source of these data is patent US9815851B2, “Pyrrolo carboxamides as modulators of orphan nuclear receptor RAR-related orphan receptor-gamma (RORγ, NR1F3) activity and for the treatment of chronic inflammatory and autoimmune diseases” (PHENEX PHARMACEUTICALS AG, priority 2011, dated 2017).

One experiment deals with T1, RORγ (UniProt P51449).
T1 sequence (P51449 1-518): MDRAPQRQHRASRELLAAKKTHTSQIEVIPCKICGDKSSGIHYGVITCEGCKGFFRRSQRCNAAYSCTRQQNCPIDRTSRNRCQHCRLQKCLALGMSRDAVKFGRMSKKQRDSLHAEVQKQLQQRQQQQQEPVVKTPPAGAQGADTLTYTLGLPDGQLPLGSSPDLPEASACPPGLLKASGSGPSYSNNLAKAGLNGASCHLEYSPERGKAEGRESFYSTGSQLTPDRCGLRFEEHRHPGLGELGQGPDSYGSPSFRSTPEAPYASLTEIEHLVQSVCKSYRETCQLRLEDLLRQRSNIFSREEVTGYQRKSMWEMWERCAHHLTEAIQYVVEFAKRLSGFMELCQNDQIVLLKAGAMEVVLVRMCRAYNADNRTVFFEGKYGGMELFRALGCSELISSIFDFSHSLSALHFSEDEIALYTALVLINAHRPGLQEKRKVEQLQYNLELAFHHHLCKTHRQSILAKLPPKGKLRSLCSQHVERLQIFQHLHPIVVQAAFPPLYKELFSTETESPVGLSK
Briefly: RORγ Gal4 Reporter Gene Assay in 293T cells (firefly and renilla luciferase). In kind it is cell-based, human. In general terms: In a reporter assay the amount or activity of a reporter protein is the signal.

Experiment [1] has as its target T2, RORγ ligand binding domain (LBD) (Homo sapiens, UniProt P51449).
T2 construct: made in house; host or cells: E. coli BL-21 (BL3), vector pDEST15
T2 sequence (P51449 269-508 limits assumed): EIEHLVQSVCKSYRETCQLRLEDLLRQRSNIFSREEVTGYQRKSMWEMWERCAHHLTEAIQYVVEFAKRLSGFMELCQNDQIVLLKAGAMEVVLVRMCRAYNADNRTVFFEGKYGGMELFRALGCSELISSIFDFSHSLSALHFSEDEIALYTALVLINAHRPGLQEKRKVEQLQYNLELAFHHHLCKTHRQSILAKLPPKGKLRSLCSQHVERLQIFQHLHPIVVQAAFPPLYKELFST
Briefly: TR-FRET Activity Assay (ligand sensing, RORγ-LBD / coactivator peptide interaction, LANCE). In kind it is biochemical. In general terms: In TR-FRET formats the signal depends on donor and acceptor labels being close together.

Where [2] appears, read: second value of the cell, Gal4 reporter gene assay in 293T cells, firefly luciferase.
[3] abbreviates: third value of the cell, Gal4 reporter gene assay in 293T cells, renilla normalised luciferase.
Where [4] appears, read: first value of the cell FRET/FF/REN, TR-FRET activity assay, read-out: pIC50 (FRET) (converted).

Structures are written as SMILES. Where two headings read alike, the source gives them in different places.

Regarding `Cc1c(C(=O)N[C@H]2C[C@H](C(=O)O)C2)cc(-c2ccc(S(=O)(=O)NC(C)(C)C)c(Cl)c2Cl)n1CC1CCCCC1` [17/277], the “pIC50 (FF)” value on RORγ (setting [2]) was 7.2. Further, the “pIC50 (REN)” value on RORγ (setting [3]) came to 7.2. In addition, the IC50 in experiment [1] (setting [4]) is 398 nM.
On to `Cc1c(C(=O)N[C@@H]2CCOC2)cc(-c2cc(C(C)(C)C)c3c(c2)C2(CCO3)CC2)n1CC1CCCCC1` [1/96], for which the “pIC50 (FF)” value against RORγ (setting [2]) turned out to be 6.7. For the same compound, the “pIC50 (REN)” value at RORγ (setting [3]) is recorded as 6.8. Also, in experiment [1] (setting [4]), the IC50 was 200 nM.
Turning to `Cc1c(C(=O)N2CCOCC2)cc(-c2cc(C(C)(C)C)cc(C(C)(C)C)c2)n1CC1CCCCC1` [1/52], the “pIC50 (FF)” value against RORγ (setting [2]) amounted to 6.4. The “pIC50 (REN)” value on RORγ (setting [3]) amounted to 6.5. In experiment [1] (setting [4]), the IC50 is 158 nM.
`Cc1c(C(=O)NC2COC2)cc(-c2cc(C(C)(C)C)cc(C(C)(C)C)c2)n1CC1Cc2ccccc2C1` [1/118]: the “pIC50 (FF)” value at RORγ (setting [2]) worked out at 6.5. In addition, on RORγ (setting [3]), the “pIC50 (REN)” value turned out to be 6.6. The IC50 in experiment [1] (setting [4]) is 631 nM.
With `Cc1c(C(=O)NCC(C)(C)C(N)=O)cc(-c2ccc(S(=O)(=O)NC(C)(C)C)c(C(F)F)c2)n1CC1CCCCC1` [17/128], the “pIC50 (FF)” value at RORγ (setting [2]) came to 8.0. Besides, the “pIC50 (REN)” value at RORγ (setting [3]) was determined as 8.0. In addition, the IC50 in experiment [1] (setting [4]) was 200 nM.
Consider `CC(C)(CCNC(=O)c1cc(-c2cc(C(C)(C)C)cc(C3(C)CC3)c2)n(CC2CCCCC2)c1F)C(=O)O` [20/5], for which the “pIC50 (FF)” value against RORγ (setting [2]) is given as 7.0. In addition, the “pIC50 (REN)” value on RORγ (setting [3]) stood at 7.0. Moreover, the IC50 in experiment [1] (setting [4]) is 794 nM.
In the case of `Cc1c(C(=O)N[C@H]2C[C@H](C(=O)O)C2)cc(-c2ccc(S(=O)(=O)NC(C)(C)C)c3c(F)cccc23)n1CC1CCCCC1` [17/364], on RORγ (setting [2]), the “pIC50 (FF)” value is given as 6.9. The “pIC50 (REN)” value against RORγ (setting [3]) turned out to be 7.0. The IC50 in experiment [1] (setting [4]) is 1000 nM.
The like results for `Cc1c(C(=O)N[C@H]2C[C@H](C(=O)O)C2)cc(-c2ccc(-c3nnc(C(C)(C)C)o3)c(C(C)(C)C)c2)n1CC1CCCCC1` [17/252] were, in that order, 6.5, 6.6 and 1580 nM.
As for `Cc1c(C(=O)N[C@H]2C[C@H](C(=O)O)C2)cc(-c2ccc(-c3ccnn3C(C)C)c(C(C)(C)C)c2)n1CC1CCCCC1` [26/5], the “pIC50 (FF)” value against RORγ (setting [2]) came to 7.9. Moreover, the “pIC50 (REN)” value on RORγ (setting [3]) was determined as 8.0. The IC50 in experiment [1] (setting [4]) is 316 nM.
For the compound `CCC(C)(C)NS(=O)(=O)c1ccc(-c2cc(C(=O)NCC(C)(C)O)c(C)n2CC2CCCCC2)cc1C(C)(C)C` [9/11], the “pIC50 (FF)” value against RORγ (setting [2]) is 7.7. Further, the “pIC50 (REN)” value at RORγ (setting [3]) is 7.8. For the same compound, in experiment [1] (setting [4]), the IC50 is 501 nM.
Turning to `Cc1c(C(=O)NCC(C)(C)C(=O)O)cc(-c2cc(C(=O)NC(C)(C)C)cc(C(C)(C)C)c2)n1CC1CCCCC1` [17/329], the “pIC50 (FF)” value against RORγ (setting [2]) turned out to be 6.8. Further, the “pIC50 (REN)” value against RORγ (setting [3]) is 6.9. The IC50 in experiment [1] (setting [4]) was 2510 nM.
For the compound `Cc1c(C(=O)NC2CS(=O)(=O)C2)cc(-c2ccc(S(=O)(=O)NC(C)(C)C)c(C(C)(C)C)c2)n1CC1CCCCC1` [17/91], on RORγ, the “pIC50 (FF)” value was 6.2/7.1/7.0 and the “pIC50 (REN)” value was 6.2/7.1/7.0. For the same compound, in experiment [1], the IC50 was 631 nM.
For the compound `Cc1c(C(=O)NCC(C)(C)C(=O)O)cc(-c2ccc(S(=O)(=O)NC(C)(C)C)c(C(F)(F)F)c2)n1CC1CCCCC1` [17/200], the “pIC50 (FF)” value at RORγ (setting [2]) was determined as 6.9. Besides, the “pIC50 (REN)” value on RORγ (setting [3]) is on record as 6.9. Besides, in experiment [1] (setting [4]), the IC50 was 501 nM.
For the compound `Cc1c(C(=O)NC2COC2)cc(-c2ccc(C(=O)N(C)CC(C)(C)C)c(C(C)(C)C)c2)n1CC1CCCCC1` [1/33], the “pIC50 (FF)” value against RORγ (setting [2]) was determined as 6.6. Besides, at RORγ (setting [3]), the “pIC50 (REN)” value came to 6.5. In addition, the IC50 in experiment [1] (setting [4]) is 794 nM.
The corresponding values for `Cc1c(C(=O)NC2COC2)cc(-c2cc(C(C)(C)C)cc(C(C)(C)C)c2)n1S(=O)(=O)N1CC(C)CC(C)C1` (stereo not drawn) [7/3] are 6.6, 6.7 and 251 nM.
The like results for `Cc1c(C(=O)NCC2(C)COC2)cc(-c2cc(S(=O)(=O)N3CCCCC3)c3ccccn23)n1CC1CCCCC1` [Example 8, 1-(Cyclohexylmethyl)-2-methyl-N-((3-methyloxetan-3-yl)methyl)-5-(1-(piperidin-1-ylsulfonyl)indolizin-3-yl)-1H-pyrrole-3-carboxamide] were, in that order, 7.2, 7.2 and 3980 nM.
Regarding `Cc1c(C(=O)NCC(C)(C)C(=O)O)cc(-c2cc(C(=O)NC(C)(C)C)cc(C3(C)CC3)c2)n1CC1CCCCC1` [17/338], on RORγ (setting [2]), the “pIC50 (FF)” value stood at 7.2. Moreover, on RORγ (setting [3]), the “pIC50 (REN)” value was 7.2. In experiment [1] (setting [4]), the IC50 was 3160 nM.
As for `Cc1c(C(=O)NC2CCS(=O)(=O)C2)cc(-c2cc(C(C)(C)C)c3c(c2)C2(CCO3)CC2)n1CC1CCCCC1` (stereo not drawn) [17/15], on RORγ (setting [2]), the “pIC50 (FF)” value is given as 7.2. Also, the “pIC50 (REN)” value at RORγ (setting [3]) turned out to be 7.1. Further, the IC50 in experiment [1] (setting [4]) is 794 nM.
For `Cc1c(C(=O)NC2COC2)cc(-c2cc(C(C)(C)C)cc(C(C)(C)C)c2)n1S(=O)(=O)N1CCC(C)CC1` [7/1], the “pIC50 (FF)” value against RORγ (setting [2]) is given as 6.7. In addition, on RORγ (setting [3]), the “pIC50 (REN)” value turned out to be 6.8. For the same compound, in experiment [1] (setting [4]), the IC50 was 316 nM.
`Cc1c(C(=O)NCC(C)(C)C(=O)O)cc(-c2cc(C(C)(C)C)c3c(c2)C(C)(C)C(=O)N3C)n1CC1CCCCC1` [17/49]: at RORγ (setting [2]), the “pIC50 (FF)” value is listed as 7.0. For the same compound, the “pIC50 (REN)” value at RORγ (setting [3]) amounted to 7.1. The IC50 in experiment [1] (setting [4]) was 2000 nM.
The corresponding values for `Cc1c(C(=O)NCC2COCCN2C)cc(-c2cc(C(C)(C)C)c3c(c2)C2(CCO3)CC2)n1CC1CCCCC1` (stereo not drawn) [17/14] are 5.9, 5.7 and 1260 nM.
`Cc1c(C(=O)NC2CCOCC2)cc(-c2ccc(S(=O)(=O)NC(=O)C(C)(C)C)c(C(F)(F)F)c2)n1CC1CCCCC1` [17/258]: the “pIC50 (FF)” value against RORγ (setting [2]) was under 4.7. In addition, the “pIC50 (REN)” value against RORγ (setting [3]) is under 4.7. Also, in experiment [1] (setting [4]), the IC50 was 7940 nM.
Regarding `CNC(=O)C(C)(C)CCNC(=O)c1cc(-c2ccc(S(=O)(=O)NC(C)(C)C)c(C(F)(F)F)c2)n(CC2CCCCC2)c1C` [17/136], the “pIC50 (FF)” value on RORγ (setting [2]) turned out to be 6.6. In addition, the “pIC50 (REN)” value at RORγ (setting [3]) was determined as 6.7. Also, the IC50 in experiment [1] (setting [4]) is 794 nM.
Take `Cc1c(C(=O)NCC2(O)CCOCC2)cc(-c2ccc(S(=O)(=O)NC(C)(C)C)c(C(F)F)c2)n1CC1CCCCC1` [17/129]: on RORγ, the “pIC50 (FF)” value is reported as 6.7/8.0/8.0 and the “pIC50 (REN)” value is reported as 6.7/8.0/8.0. This compound gave an IC50 in experiment [1] of 200 nM.
In the case of `Cc1c(C(=O)NCC(C)(C)O)cc(-c2cc(C(C)(C)C)c3c(c2)C2(CCO3)CC2)n1CC1CCCCC1` [1/39], on RORγ, the “pIC50 (FF)” value was 6.5/6.9/7.0 and the “pIC50 (REN)” value is reported as 6.5/6.9/7.0. In experiment [1], this compound showed an IC50 of 316 nM.
With `Cc1c(C(=O)NCC(O)(C(F)(F)F)C(F)(F)F)cc(-c2cc(C(C)(C)C)cc(C(C)(C)C)c2)n1CC1CCCCC1` [1/113], on RORγ (setting [2]), the “pIC50 (FF)” value is under 4.7. Further, the “pIC50 (REN)” value on RORγ (setting [3]) was under 4.7. Also, the IC50 in experiment [1] (setting [4]) was 3980 nM.
Regarding `Cc1c(C(=O)NCC2(O)CCOCC2)cc(-c2ccc(S(=O)(=O)NC(C)(C)C)c3ccccc23)n1CC1CCC1` [17/243], the “pIC50 (FF)” value on RORγ (setting [2]) was 7.4. In addition, the “pIC50 (REN)” value at RORγ (setting [3]) is 7.6. In experiment [1] (setting [4]), the IC50 is 631 nM.
The like results for `CC(C)(C)NS(=O)(=O)c1ccc(-c2cc(C(=O)NC3CCOCC3)c(Cl)n2CC2CCCCC2)cc1C(C)(C)C` [17/119] were, in that order, 7.6, 7.7 and 501 nM.
